Measured values taken from patent US20110104055A1, “SUBSTITUTED N-ARYL BENZAMIDES AND RELATED COMPOUNDS FOR TREATMENT OF AMYLOID DISEASES AND SYNUCLEINOPATHIES” (priority 2002, published 2011).

Target: T1, Aβ 1-42 fibrils (Homo sapiens, UniProt P05067)
T1 construct: purchased Bachem Inc
Assay: Congo red binding assay, Aβ 1-42 fibrils (Example 11)
Type: biochemical
Conditions: 3-day incubation
Description: In the Congo red binding assay, the ability of a test compound to alter amyloid (in this case, Aβ) binding to Congo red is quantified. In this assay, Aβ 1-42 and test compounds were incubated for 3 days and then vacuum filtered through a 0.2 μm filter. The amount of Aβ 1-42 retained in the filter was then quantitated following staining of the filter with Congo red. After appropriate washing of the filter, any lowering of the Congo red color on the filter in the presence of the test compound (compared to the Congo red staining of the amyloid protein in the absence of the test compound) was indicative of the test compound's ability to diminish/alter the amount of aggregated and congophilic Aβ.
In one study, the ability of Aβ fibrils to bind Congo red in the absence or presence of increasing amounts of the compounds or EDTA (at Aβ:test compound weight ratios of 1:1, 1:0.1, 1:0.01 or 1:0.001) was determined.

T1 sequence (P05067 672-713): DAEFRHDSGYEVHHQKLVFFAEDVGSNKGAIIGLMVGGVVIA

Q: Which “% Inhibition Aβ (result ± S.D.), Congo red binding” value (from here on “% Inhibition Aβ”) (Aβ:test compound wt/wt ratio 1:0.001) does the source give for `O=C(O)CN(CCN(CC(=O)O)CC(=O)O)CC(=O)O` [EDTA] here?
A: 1.2 ± 7.95%

Q: And the “% Inhibition Aβ” value (Aβ:test compound wt/wt ratio 1:0.01)?
A: 8.4 ± 4.00%

Q: What about the “% Inhibition Aβ” value (Aβ:test compound wt/wt ratio 1:0.1) of the same compound?
A: 0.0 ± 6.83%

Q: What about the “% Inhibition Aβ” value (Aβ:test compound wt/wt ratio 1:1) of the same compound?
A: 8.4 ± 2.74%

Q: And the “inhibition of Aβ 1-42 fibril binding to Congo red, in words” value (all concentrations tested)?
A: no significant inhibition
